Key:
[1] = Cytotoxicity against human UACC257 cells assessed as cell growth at 10^-5 M after 24 hrs by SRB assay; assay type: functional; conditions: UACC-257, 24 h, read-out: Activity
[2] = Cytotoxicity against human SNB75 cells assessed as cell growth at 10^-4 M after 24 hrs by SRB assay; assay type: functional; conditions: SNB-75, 24 h, read-out: Activity
NCI-H460 = assay: Cytotoxicity against human NCI-H460 cells assessed as cell growth at 10^-6 M after 24 hrs by SRB assay; assay type: functional; conditions: NCI-H460, 24 h, read-out: Activity
NCI-H23 = assay: Cytotoxicity against human NCI-H23 cells after 24 hrs by SRB assay; assay type: functional; conditions: NCI-H23, 24 h
[3] = Cytotoxicity against human HOP92 cells assessed as cell growth at 10^-5 M after 24 hrs by SRB assay; assay type: functional; conditions: HOP-92, 24 h, read-out: Activity
T47D = assay: Cytotoxicity against human T47D cells assessed as cell growth at 10^-7 M after 24 hrs by SRB assay; assay type: functional; conditions: read-out: Activity
[4] = Cytotoxicity against human SKOV3 cells assessed as cell growth at 10^-6 M after 24 hrs by SRB assay; assay type: functional; conditions: SK-OV-3, 24 h, read-out: Activity
MCF7 = assay: Cytotoxicity against human MCF7 cells assessed as cell growth at 10^-4 M after 24 hrs by SRB assay; assay type: functional; conditions: MCF7, 24 h, read-out: Activity
A498 = assay: Cytotoxicity against human A498 cells after 24 hrs by SRB assay; assay type: functional; conditions: A498, 24 h
[5] = Cytotoxicity against human OVCAR5 cells assessed as cell growth at 10^-7 M after 24 hrs by SRB assay; assay type: functional; conditions: OVCAR-5, 24 h, read-out: Activity
[6] = Cytotoxicity against human UO31 cells assessed as cell growth at 10^-8 M after 24 hrs by SRB assay; assay type: functional; conditions: UO-31, 24 h, read-out: Activity
[7] = Cytotoxicity against human COLO205 cells assessed as cell growth at 10^-4 M after 24 hrs by SRB assay; assay type: functional; conditions: COLO 205, 24 h, read-out: Activity
SK-MEL-28 [8] = assay: Cytotoxicity against human SK-MEL-28 cells assessed as cell growth at 10^-6 M after 24 hrs by SRB assay; assay type: functional; conditions: SK-MEL-28, 24 h, read-out: Activity
NCI-H322M = assay: Cytotoxicity against human NCI-H322M cells assessed as cell growth at 10^-8 M after 24 hrs by SRB assay; assay type: functional; conditions: read-out: Activity
A549 [9] = assay: Cytotoxicity against human A549 cells assessed as cell growth at 10^-6 M after 24 hrs by SRB assay; assay type: functional; conditions: A549, 24 h, read-out: Activity
Malme-3M [10] = assay: Cytotoxicity against human MALME-3M cells after 24 hrs by SRB assay; assay type: functional, cell-based
SK-MEL-5 [11] = assay: Cytotoxicity against human SK-MEL-5 cells assessed as cell growth at 10^-5 M after 24 hrs by SRB assay; assay type: functional; conditions: SK-MEL-5, 24 h, read-out: Activity
[12] = Cytotoxicity against human SF539 cells assessed as cell growth at 10^-6 M after 24 hrs by SRB assay; assay type: functional; conditions: SF-539, 24 h, read-out: Activity
U-251 = assay: Cytotoxicity against human U251 cells assessed as cell growth at 10^-6 M after 24 hrs by SRB assay; assay type: functional; conditions: U-251, 24 h, read-out: Activity
[13] = Cytotoxicity against human SW620 cells after 24 hrs by SRB assay; assay type: functional; conditions: SW-620, 24 h
[14] = Cytotoxicity against human DU145 cells assessed as cell growth at 10^-8 M after 24 hrs by SRB assay; assay type: functional; conditions: DU-145, 24 h, read-out: Activity
ACHN = assay: Cytotoxicity against human ACHN cells assessed as cell growth at 10^-5 M after 24 hrs by SRB assay; assay type: functional; conditions: read-out: Activity
[15] = Cytotoxicity against human OVCAR8 cells assessed as cell growth at 10^-4 M after 24 hrs by SRB assay; assay type: functional; conditions: OVCAR-8, 24 h, read-out: Activity
A549 [16] = assay: Cytotoxicity against human A549 cells assessed as cell growth at 10^-7 M after 24 hrs by SRB assay; assay type: functional; conditions: A549, 24 h, read-out: Activity
[17] = Cytotoxicity against human MOLT4 cells after 24 hrs by SRB assay; assay type: functional; conditions: MOLT-4, 24 h
M14 = assay: Cytotoxicity against human M14 cells assessed as cell growth at 10^-8 M after 24 hrs by SRB assay; assay type: functional; conditions: M14, 24 h, read-out: Activity
[18] = Cytotoxicity against human HOP92 cells assessed as cell growth at 10^-4 M after 24 hrs by SRB assay; assay type: functional; conditions: HOP-92, 24 h, read-out: Activity
SK-MEL-28 [19] = assay: Cytotoxicity against human SK-MEL-28 cells assessed as cell growth at 10^-5 M after 24 hrs by SRB assay; assay type: functional; conditions: SK-MEL-28, 24 h, read-out: Activity
SK-MEL-5 [20] = assay: Cytotoxicity against human SK-MEL-5 cells assessed as cell growth at 10^-7 M after 24 hrs by SRB assay; assay type: functional; conditions: SK-MEL-5, 24 h, read-out: Activity
K562 = assay: Cytotoxicity against human K562 cells assessed as cell growth at 10^-8 M after 24 hrs by SRB assay; assay type: functional; conditions: K562, 24 h, read-out: Activity
[21] = Cytotoxicity against human Caki1 cells assessed as cell growth at 10^-8 M after 24 hrs by SRB assay; assay type: functional; conditions: CAKI-1, 24 h, read-out: Activity
SN12C [22] = assay: Cytotoxicity against human SN12C cells assessed as cell growth at 10^-5 M after 24 hrs by SRB assay; assay type: functional; conditions: read-out: Activity
SN12C [23] = assay: Cytotoxicity against human SN12C cells assessed as cell growth at 10^-6 M after 24 hrs by SRB assay; assay type: functional; conditions: read-out: Activity
Malme-3M [24] = assay: Cytotoxicity against human MALME-3M cells assessed as cell growth at 10^-4 M after 24 hrs by SRB assay; assay type: functional; conditions: read-out: Activity
[25] = Cytotoxicity against human NCI-ADR-RES cells assessed as cell growth at 10^-7 M after 24 hrs by SRB assay; assay type: functional; conditions: read-out: Activity
[26] = Cytotoxicity against human OVCAR8 cells assessed as cell growth at 10^-8 M after 24 hrs by SRB assay; assay type: functional; conditions: OVCAR-8, 24 h, read-out: Activity
[27] = read-out: LC50 (the source's name)
[28] = read-out: pLC50 (the source's name) (converted)

`O=C(Nc1cc(-c2cccnc2)nc(NCCCN2CCOCC2)n1)c1cc(Br)cc(C(F)(F)F)c1` showed a growth at 10 µM [1] of -83%, a growth at 100 µM [2] of -99% and a growth at 1 µM (NCI-H460) of 99%. For the same compound, the GI50 (NCI-H23; read-out: GI50) was 3.55 µM, the CC50 (NCI-H23; [27]) was 46.1 µM and the TGI (NCI-H23; read-out: TGI) was 15 µM. For the same compound, the GI50 (NCI-H23; read-out: pGI50 (converted)) was 3.55 µM, the CC50 (NCI-H23; [28]) was 45.7 µM and the TGI (NCI-H23; read-out: pTGI (converted)) was 15.1 µM. It also gave a growth at 10 µM [3] of -10%, a growth at 0.1 µM (T47D) of 91% and a growth at 1 µM [4] of 97%. For the same compound, the growth at 100 µM (MCF7) was -75%, the GI50 (A498; read-out: GI50) was 3.43 µM and the CC50 (A498; [27]) was 40.5 µM. The TGI (A498; read-out: TGI) was 13.4 µM, the GI50 (A498; read-out: pGI50 (converted)) was 3.39 µM and the CC50 (A498; [28]) was 40.7 µM. The TGI (A498; read-out: pTGI (converted)) was 13.5 µM, the growth at 0.1 µM [5] was 92% and the growth at 0.01 µM [6] was 95%. The growth at 100 µM [7] was -88%, the growth at 1 µM (SK-MEL-28 [8]) was 89% and the growth at 0.01 µM (NCI-H322M) was 98%. It also gave a growth at 1 µM (A549 [9]) of 119%, an IC50 (Malme-3M [10]) of 1.76 µM and a GI50 (Malme-3M [10]; read-out: GI50) of 1.76 µM. It also gave a CC50 (Malme-3M [10]; [27]) of 7.28 µM, a TGI (Malme-3M [10]; read-out: TGI) of 3.58 µM and a GI50 (Malme-3M [10]; read-out: pGI50 (converted)) of 1.78 µM. It also gave a CC50 (Malme-3M [10]; [28]) of 7.24 µM, a TGI (Malme-3M [10]; read-out: pTGI (converted)) of 3.55 µM and a growth at 10 µM (SK-MEL-5 [11]) of -98%. For the same compound, the growth at 1 µM [12] was 85%, the growth at 1 µM (U-251) was 98% and the GI50 ([13]; read-out: GI50) was 2.25 µM. The CC50 [13, 27] was 20.1 µM, the TGI ([13]; read-out: TGI) was 5.48 µM and the GI50 ([13]; read-out: pGI50 (converted)) was 2.24 µM. For the same compound, the CC50 [13, 28] was 20 µM, the TGI ([13]; read-out: pTGI (converted)) was 5.62 µM and the growth at 0.01 µM [14] was 103%. For the same compound, the growth at 10 µM (ACHN) was 5%, the growth at 100 µM [15] was -79% and the growth at 0.1 µM (A549 [16]) was 109%. It also gave a GI50 ([17]; read-out: GI50) of 3.63 µM, a CC50 [17, 27] of 59.6 µM and a TGI ([17]; read-out: TGI) of 13.1 µM. For the same compound, the GI50 ([17]; read-out: pGI50 (converted)) was 3.63 µM, the CC50 [17, 28] was 60.3 µM and the TGI ([17]; read-out: pTGI (converted)) was 13.2 µM. The growth at 0.01 µM (M14) was 94%, the growth at 100 µM [18] was -94% and the growth at 10 µM (SK-MEL-28 [19]) was -75%. The growth at 0.1 µM (SK-MEL-5 [20]) was 95%, the growth at 0.01 µM (K562) was 107% and the growth at 0.01 µM [21] was 99%. The growth at 10 µM (SN12C [22]) was 44%, the growth at 1 µM (SN12C [23]) was 101% and the growth at 100 µM (Malme-3M [24]) was -78%. It also gave a growth at 0.1 µM [25] of 99% and a growth at 0.01 µM [26] of 106%.

From ChEMBL document CHEMBL3774345, “Synthesis of new diarylamides with pyrimidinyl pyridine scaffold and evaluation of their anti-proliferative effect on cancer cell lines” (Bioorg Med Chem Lett, 2016)
